What was measured:
rat [1] = settings: Subchronic oral toxicity in rodents, fischer, Gavage/Intubation, dose end: 13 week, group: systemic
rabbit = settings: Prenatal developmental toxicity study, new zealand white, Oral, Gavage/Intubation, dose end: 18 GD
rat [2] = settings: Subchronic inhalation toxicity, sprague dawley, Whole-Body, dose end: 13 week, group: systemic, systemic / hematology / erythrocyte (rbc) count differential / erythrocyte (rbc) + systemic / hematology / hemoglobin (hgb) / hemoglobin (…
mouse [3] = settings: Subchronic oral toxicity in rodents, b6c3f1, Gavage/Intubation, dose end: 13 week, group: systemic
mouse [4] = settings: Combined chronic toxicity/carcinogenicity, b6c3f1, Inhalation, Whole-Body, dose end: 103 week, group: systemic
rat [5] = settings: Combined chronic toxicity/carcinogenicity; fischer; Inhalation; Whole-Body; dose end: 103 week; group: systemic; systemic / pathology microscopic / larynx / metaplasia + systemic / pathology microscopic / nose / pigmentation + systemic / pathology …
rat [6] = settings: Sub-acute repeat dose toxicity; sprague dawley; Oral; Gavage/Intubation; dose end: 14 day; group: systemic; systemic / clinical chemistry / [other] / [other] + systemic / clinical chemistry / 5' nucleotidase / 5' nucleotidase + systemic / clinical …
mouse [7] = settings: Sub-acute repeat dose toxicity; Oral; Gavage/Intubation; dose end: 14 day; group: systemic; systemic / clinical chemistry / [other] / [other] + systemic / clinical chemistry / cytochrome p450, nos / cytochrome p450, nos + systemic…
mouse [8] = settings: Sub-acute repeat dose toxicity; Oral; Gavage/Intubation; dose end: 14 day; group: systemic; systemic / clinical chemistry / [other] / [other] + systemic / clinical chemistry / cytochrome p450, nos / cytochrome p450, nos + systemic…; remark: listed apart in the source
primate [9] = settings: Sub-acute repeat dose toxicity; Oral; Gavage/Intubation; dose end: 4 day; group: systemic; systemic / clinical chemistry / chloride / chlorine + systemic / clinical chemistry / cholesterol / cholesterol + systemic / clinical …
rat [10] = settings: Sub-acute repeat dose toxicity, sprague dawley, Oral, Gavage/Intubation, dose end: 14 day, group: systemic
primate [11] = settings: Sub-acute repeat dose toxicity, Oral, Gavage/Intubation, dose end: 34 day, group: systemic
mouse [12] = settings: Sub-acute repeat dose toxicity, Oral, Gavage/Intubation, dose end: 14 day, group: systemic
rat [13] = settings: Sub-acute repeat dose toxicity, sprague dawley, Oral, Gavage/Intubation, dose end: 34 day, group: systemic
rat [14] = settings: Sub-acute repeat dose toxicity; sprague dawley; Oral; Gavage/Intubation; dose end: 8 day; group: systemic; systemic / clinical chemistry / potassium / potassium + systemic / in life observation / body weight / body weight + systemic / clinical …
primate [15] = settings: Sub-acute repeat dose toxicity; Oral; Gavage/Intubation; dose end: 8 day; group: systemic; systemic / in life observation / clinical signs / emesis
[16] = systemic / in life observation / body weight / body weight gain + systemic / in life observation / clinical signs / fur (altered appearance…
[17] = group: developmental, developmental / developmental malformation / bone / malformation, total
[18] = group: maternal, systemic / in life observation / body weight / body weight gain + systemic / in life observation / clinical signs / defecation (diarrhea) + …
[19] = systemic / organ weight / kidney / relative to brain weight + systemic / organ weight / liver / relative to brain weight
[20] = systemic / pathology microscopic / nose / pigmentation + systemic / pathology microscopic / trachea / pigmentation
[21] = systemic / clinical chemistry / cholesterol / cholesterol + systemic / clinical chemistry / globulins / globulins + systemic / clinical …
[22] = systemic / organ weight / liver / absolute + systemic / clinical chemistry / hepatic mixed function oxidase (mfo) assay / hepatic mixed …
[23] = systemic / organ weight / liver / absolute + systemic / in life observation / clinical signs / arrhythmia + systemic / in life observation…
[24] = systemic / clinical chemistry / [other] / [other] + systemic / clinical chemistry / cytochrome p450, nos / cytochrome p450, nos + systemic…
[25] = systemic / organ weight / liver / relative to body weight
[26] = systemic / clinical chemistry / hepatic mixed function oxidase (mfo) assay / hepatic mixed function oxidase (mfo) assay
[27] = systemic / hematology / erythrocyte (rbc) count differential / erythrocyte (rbc) + systemic / in life observation / mortality / mortality + …

Work on `ClC1=C(Cl)C(Cl)(Cl)C(Cl)=C1Cl` [Hexachlorocyclopentadiene] yielded an LOAEL (rat [1]; [16]) of over 150 mg/kg/day, an NEL (rat [1]; [16]) of 10 mg/kg/day and an NOAEL (rat [1]; [16]) of at least 150 mg/kg/day. For the same compound, the LEL (rat [1]; systemic / pathology microscopic / stomach / hyperplasia + systemic / pathology microscopic / stomach / inflammation) was 19 mg/kg/day, the LEL (rabbit; [17]) was 75 mg/kg/day and the LOAEL (rabbit; [17]) was over 75 mg/kg/day. For the same compound, the NEL (rabbit; [17]) was 25 mg/kg/day, the NOAEL (rabbit; [17]) was at least 75 mg/kg/day and the LEL (rabbit; [18]) was 75 mg/kg/day. It also gave an LOAEL (rabbit; [18]) of 75 mg/kg/day, an NEL (rabbit; [18]) of 25 mg/kg/day and an NOAEL (rabbit; [18]) of 25 mg/kg/day. The LEL (rat [2]) was 0.01 ppm, the LOAEL (rat [2]) was over 0.2 ppm and the NEL (rat [2]) was under 0.01 ppm. For the same compound, the NOAEL (rat [2]) was at least 0.2 ppm, the LOAEL (mouse [3]; [16]) was over 300 mg/kg/day and the NOAEL (mouse [3]; [16]) was at least 300 mg/kg/day. For the same compound, the LEL (mouse [3]; [19]) was 19 mg/kg/day, the NEL (mouse [3]; [19]) was under 19 mg/kg/day and the LOAEL (mouse [4]; systemic / in life observation / body weight / body weight + systemic / pathology microscopic / nose / inflammation) was 0.2 ppm. For the same compound, the NOAEL (mouse [4]; systemic / in life observation / body weight / body weight + systemic / pathology microscopic / nose / inflammation + systemic / pathology …) was 0.05 ppm, the LEL (mouse [4]; [20]) was 0.01 ppm and the NEL (mouse [4]; [20]) was under 0.01 ppm. For the same compound, the LEL (rat [5]) was 0.01 ppm, the LOAEL (rat [5]) was over 0.2 ppm and the NEL (rat [5]) was under 0.01 ppm. For the same compound, the NOAEL (rat [5]) was at least 0.2 ppm.

Work on `NC(=O)N(O)Cc1ccc2c(c1)CCCN2CCCc1ccccc1` yielded an LEL (rat [6]) of 200 mg/kg/day, an LOAEL (rat [6]) of over 200 mg/kg/day and an NEL (rat [6]) of under 200 mg/kg/day. The NOAEL (rat [6]) was at least 200 mg/kg/day, the LEL (mouse [7]) was 200 mg/kg/day and the LOAEL (mouse [7]) was over 200 mg/kg/day. It also gave an NEL (mouse [7]) of under 200 mg/kg/day, an NOAEL (mouse [7]) of at least 200 mg/kg/day and an LEL (mouse [8]) of 200 mg/kg/day. It also gave an LOAEL (mouse [8]) of over 200 mg/kg/day, an NEL (mouse [8]) of under 200 mg/kg/day and an NOAEL (mouse [8]) of at least 200 mg/kg/day. For the same compound, the LEL (primate [9]) was 300 mg/kg/day, the LOAEL (primate [9]) was over 300 mg/kg/day and the NEL (primate [9]) was under 300 mg/kg/day. For the same compound, the NOAEL (primate [9]) was at least 300 mg/kg/day, the LOAEL (rat [10]; [21]) was over 100 mg/kg/day and the NEL (rat [10]; [21]) was 10 mg/kg/day. For the same compound, the NOAEL (rat [10]; [21]) was at least 100 mg/kg/day, the LEL (rat [10]; systemic / clinical chemistry / triglycerides / triglycerides + systemic / organ weight / liver / relative to body weight + systemic / …) was 32 mg/kg/day and the LEL (primate [11]; [22]) was 5 mg/kg/day. For the same compound, the NEL (primate [11]; [22]) was under 5 mg/kg/day, the LOAEL (primate [11]; [23]) was over 100 mg/kg/day and the NOAEL (primate [11]; [23]) was at least 100 mg/kg/day. It also gave an LOAEL (mouse [12]; [24]) of over 200 mg/kg/day, an NOAEL (mouse [12]; [24]) of at least 200 mg/kg/day and an LEL (mouse [12]; [25]) of 50 mg/kg/day. For the same compound, the NEL (mouse [12]; [25]) was under 50 mg/kg/day, the LEL (rat [13]; [26]) was 10 mg/kg/day and the NEL (rat [13]; [26]) was under 10 mg/kg/day. It also gave an LOAEL (rat [13]; [27]) of over 200 mg/kg/day, an NOAEL (rat [13]; [27]) of at least 200 mg/kg/day and an LEL (rat [14]) of 400 mg/kg/day. The LOAEL (rat [14]) was over 400 mg/kg/day, the NEL (rat [14]) was under 400 mg/kg/day and the NOAEL (rat [14]) was at least 400 mg/kg/day. The LEL (primate [15]) was 150 mg/kg/day, the LOAEL (primate [15]) was over 150 mg/kg/day and the NEL (primate [15]) was under 150 mg/kg/day. For the same compound, the NOAEL (primate [15]) was at least 150 mg/kg/day.
